Drawing on patent publication US20160122386A1, “V1A RECEPTOR AGONISTS” (FERRING B.V., priority 2014, published 2016), this text covers EC50 and Emax for ten compounds.

Like-named read-outs stand apart in the source and are kept apart here. Starred links: 1 amine or outer side, 2 acyl side, 3 side chain; linkers in the order of their positions; H or OH if unused. Positions of bridges follow the written chain, without caps; N, C: chain ends. Non-standard residues stand in square brackets, D forms with d. Residues, ends and D or L forms follow the SMILES beside them. Chains are numbered I, II in the order given. *: point of attachment. X3 = O=C([C@H](CCCNCCCCN[*:3])N[*:1])[*:2]; isoGln = NC(=O)[C@H](CCC(=O)[*:2])N[*:1]; d(εLys) = N[C@H](CCCCN[*:1])C(=O)[*:2]; εLys = N[C@@H](CCCCN[*:1])C(=O)[*:2]; Glutaryl = O=C(CCCC(=O)[*:2])[*:1]; 3Pal = N[C@@H](Cc1cccnc1)C(=O)O; Cit = NC(=O)NCCC[C@H](N)C(=O)O; Orn = NCCC[C@H](N)C(=O)O; Dab = NCC[C@H](N)C(=O)O; PhAc = O=C(Cc1ccccc1)*

This test concerns the target T1, human V1aR (Homo sapiens, UniProt P37288).
T1 construct: expressed in transfected cells
The experiment in a line: Agonist activity at vasopressin V1a receptors, cell-based FLIPR calcium assay. The settings on record: for Emax: read-out: Efficacy Avg. (%). As for the experimental part:
Efficacy (% MPE) is also determined as the percentage of maximal possible effect. This agonist assay utilizes cells from a stable cell line (HEK-flpin) expressing the vasopressin V1a receptor. Intracellular calcium increase in response to agonist is measured through real-time fluorescence of an intracellular calcium-sensitive dye. Cells are exposed to varying concentrations of test agonist compounds whereupon release of intracellular calcium is measured to determine the agonist potency and efficacy.
The cell line stably expresses the lacZ-Zeocin™ fusion gene and is designed for use with the Flp-In™ expression vector containing the gene of interest and the Flp recombinase expression plasmid, pOG44. The cell line contains a single integrated Flp Recombination Target (FRT) site from pFRT/lacZeo or pFRT/lacZeo2. To generate the HEK-flpin cell line stably expressing the human V1aR, the cells were co-transfected with the Flp-In™ expression vector containing the gene of interest (pcDNA5/FRT-hV1aR) and the Flp recombinase expression plasmid pOG44. Flp recombinase mediates insertion of the Flp-In™ expression vector into the genome at the integrated FRT site through site-specific DNA recombination. Stable cell lines expressing the hV1aR from the Flp-In™ expression vector can be generated by selection using hygromycin B. See Life Technologies/Invitrogen manual, Growth and Maintenance of Flp-In™ Cell Lines, Version E, published Feb.
Efficacy of this compound was set to be 100%. A stock solution of 5 mM was made up in DMSO and stored at −20° C.
HEK-flpin-hV1aR, cmcqV1aR, dV1aR and pV1aR cells were maintained in DMEM containing 10% (v/v) FBS-HI, 4 mM GlutaMAX™-I, 25 μg/mL Hygromycin B at 37° C. under 5% CO2 in a humidified atmosphere. Subculture was achieved by splitting semi-confluent cultures 1:3 to 1:6.
All compounds were made up in 100% DMSO at 10 mM stock concentrations and stored at −20° C. The compounds were allowed to thaw just before the assay. […] Typical dilution procedure of 10× final assay concentration involved a 1:100 top dilution (e.g., 2 μl Stock into 198 μl dilution medium) followed by half-log serial dilutions (e.g., 25.3 μl into 54.7 μl dilution medium supplemented with 1% DMSO (v/v)). (Dilution media consisted of phenol-red free DMEM containing 10% FBS-HI, 4 mM GlutaMAX™-I). […] The final DMSO concentration in the assay was 0.1%.
Loading Buffer was prepared by dissolving 1 vial of Calcium 4 Assay reagent in 100 mL of 1× HBSS-20 mM Hepes buffer.
The cells were loaded with Loading Buffer as follows. Cell plates were removed from the incubator and 20 μl of Loading Buffer containing probenecid (2.5 mM) was added to each well. The cells were incubated for 1 hr at 37° C. under 5% CO2 in a humidified atmosphere. The calcium image was obtained as follows.
The cell plates were transferred to FLIPR Tetra, along with a 384 well V-bottom plate pre-loaded with half-log concentrations of test compounds at 10× final test concentrations. The remaining steps of the assay were carried forward by FLIPR Tetra. A baseline reading was taken at 1-second (s) intervals for 5s followed by the addition of 5 μl of 10× compounds (test, reference, or Blank). The agonist-induced fluorescence signal was then measured for 180 s with initial 120 readings at 1-second intervals followed by 20 readings at 3-second intervals. Overall, each well in the FLIPR assay was composed of the following components in a total volume of 50 μl: 20 μl cells; 20 μl Calcium 4 Loading Buffer; […] 10× test or reference compound.

T1 sequence (P37288 whole entry): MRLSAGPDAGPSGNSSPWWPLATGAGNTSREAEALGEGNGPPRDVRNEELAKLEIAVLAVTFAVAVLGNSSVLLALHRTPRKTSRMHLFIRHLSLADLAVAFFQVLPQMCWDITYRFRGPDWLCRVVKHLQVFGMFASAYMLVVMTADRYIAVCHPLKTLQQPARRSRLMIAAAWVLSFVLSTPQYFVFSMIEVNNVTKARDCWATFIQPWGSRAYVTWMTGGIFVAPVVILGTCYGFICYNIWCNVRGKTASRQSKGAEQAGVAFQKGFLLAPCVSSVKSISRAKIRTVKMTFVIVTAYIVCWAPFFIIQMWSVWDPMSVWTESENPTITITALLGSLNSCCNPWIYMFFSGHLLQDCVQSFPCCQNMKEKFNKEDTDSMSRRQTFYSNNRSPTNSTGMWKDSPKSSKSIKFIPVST

In general, EC50 refers to the midpoint of the concentration-response curve. Turning to `CC[C@H](C)[C@@H]1NC(=O)[C@H](Cc2ccccc2)NC(=O)[C@@H](N)CSSC[C@@H](C(=O)N2CCC[C@H]2C(=O)N[C@@H](CCCNC(=O)[C@@H](N)CCCCNC(=O)CC[C@H](NC(=O)[C@H](CCCNC(=N)N)NC(=O)[C@@H]2CCCN2C(=O)[C@H](C)NC(=O)[C@H](CC(N)=O)NC(=O)[C@H](CCC(N)=O)NC(=O)[C@H](Cc2ccccc2)NC(=O)[C@@H](Cc2ccc(OC)cc2)NC(=O)Cc2ccccc2)C(N)=O)C(=O)NCC(N)=O)NC(=O)[C@H](CC(N)=O)NC(=O)[C@H](CCC(N)=O)NC1=O` [Compound 28] (I: H-CFIQNCP[Orn]G-NH2 / II: PhAc-[dY](Me)FQNAPR[isoGln][εLys]; disulfide I:1-I:6; amide I:8-II:C), the EC50 was 1.2 nM and the Emax came out at 44%.
On to `CC[C@H](C)[C@@H]1NC(=O)[C@H](Cc2ccccc2)NC(=O)[C@@H](N)CSSC[C@@H](C(=O)N2CCC[C@H]2C(=O)N[C@@H](CCCNCCCCCNC(=O)CCNC(=O)CC[C@H](NC(=O)[C@H](CCCNC(=N)N)NC(=O)[C@@H]2CCCN2C(=O)[C@H](C)NC(=O)[C@H](CC(N)=O)NC(=O)[C@H](CCC(N)=O)NC(=O)[C@H](Cc2ccccc2)NC(=O)[C@@H](Cc2ccc(OC)cc2)NC(=O)Cc2ccccc2)C(N)=O)C(=O)NCC(N)=O)NC(=O)[C@H](CC(N)=O)NC(=O)[C@H](CCC(N)=O)NC1=O` [Compound 20], for which the EC50 came out at 2.7 nM and the Emax turned out to be 42%.
With `CC[C@H](C)[C@@H]1NC(=O)[C@H](Cc2ccccc2)NC(=O)[C@@H](O)CSSC[C@@H](C(=O)N2CCC[C@H]2C(=O)N[C@@H](CCNC(=O)[C@@H](N)CCCCNC(=O)CC[C@H](NC(=O)[C@H](CCCNC(=N)N)NC(=O)[C@@H]2CCCN2C(=O)[C@H](CCCCN)NC(=O)[C@H](CC(N)=O)NC(=O)[C@H](CCC(N)=O)NC(=O)[C@H](Cc2ccccc2)NC(=O)[C@@H](Cc2ccc(OC)cc2)NC(=O)CC(C)C)C(N)=O)C(=O)NCC(N)=O)NC(=O)[C@H](CC(N)=O)NC(=O)[C@H](CCC(N)=O)NC1=O` [Compound 33], the Emax is 50%. Besides, the EC50 (HEK-flpin cells stably expressing hV1aR, intracellular calcium fluorescence, averaged, read-out: EC50 (Avg)) was 1.1 nM.
Regarding `CC[C@H](C)[C@@H]1NC(=O)[C@H](Cc2ccccc2)NC(=O)[C@@H](N)CSSC[C@@H](C(=O)N2CCC[C@H]2C(=O)N[C@@H](CCCNCCCCCC(=O)NCCCC[C@H](NC(=O)[C@H](CCCNC(=N)N)NC(=O)[C@@H]2CCCN2C(=O)[C@H](C)NC(=O)[C@H](CC(N)=O)NC(=O)[C@H](CCC(N)=O)NC(=O)[C@H](Cc2ccccc2)NC(=O)[C@@H](Cc2ccc(OC)cc2)NC(=O)Cc2ccccc2)C(N)=O)C(=O)NCC(N)=O)NC(=O)[C@H](CC(N)=O)NC(=O)[C@H](CCC(N)=O)NC1=O` [Compound 8], the EC50 is over 10000 nM and the Emax amounted to 50%.
For `CC[C@H](C)[C@@H]1NC(=O)[C@H](Cc2ccccc2)NC(=O)[C@@H](N)CSSC[C@@H](C(=O)N2CCC[C@H]2C(=O)N[C@@H](CCNC(=O)[C@H](N)CCCCNC(=O)CC[C@H](NC(=O)[C@H](CCCNC(=N)N)NC(=O)[C@@H]2CCCN2C(=O)[C@H](CCCNC(N)=O)NC(=O)[C@H](CC(N)=O)NC(=O)[C@H](CCC(N)=O)NC(=O)[C@H](Cc2ccccc2)NC(=O)[C@@H](Cc2ccc(OC)cc2)NC(=O)Cc2ccccc2)C(N)=O)C(=O)NCC(N)=O)NC(=O)[C@H](CC(N)=O)NC(=O)[C@H](CCC(N)=O)NC1=O` [Compound 49] (I: H-CFIQNCP[Dab]G-NH2 / II: PhAc-[dY](Me)FQN[Cit]PR[isoGln][d(εLys)]; disulfide I:1-I:6; amide I:8-II:C) the same measures were 0.76 nM and 55%.
In the same order, the values of `CC[C@H](C)[C@@H]1NC(=O)[C@H](Cc2ccccc2)NC(=O)[C@@H](N)CSSC[C@@H](C(=O)N2CCC[C@H]2C(=O)N[C@@H](CCCNCCCCCC(=O)NCCCC[C@H](NC(=O)[C@H](CCCNC(=N)N)NC(=O)[C@@H]2CCCN2C(=O)[C@H](CCCNC(=N)N)NC(=O)[C@H](CC(N)=O)NC(=O)[C@H](CCC(N)=O)NC(=O)[C@H](Cc2ccccc2)NC(=O)[C@@H](Cc2ccc(OC)cc2)NC(=O)Cc2ccccc2)C(N)=O)C(=O)NCC(N)=O)NC(=O)[C@H](CC(N)=O)NC(=O)[C@H](CCC(N)=O)NC1=O` [Compound 6] are 2.5 nM and 28%.
For `CC[C@H](C)[C@@H]1NC(=O)[C@H](Cc2ccccc2)NC(=O)[C@@H](N)CSSC[C@@H](C(=O)N2CCC[C@H]2C(=O)N[C@@H](CCCNC(=O)[C@@H](N)CCCCNC(=O)CC[C@H](NC(=O)[C@H](CCCNC(=N)N)NC(=O)[C@@H]2CCCN2C(=O)[C@H](CCCNC(=N)N)NC(=O)[C@H](CC(N)=O)NC(=O)[C@H](Cc2cccnc2)NC(=O)[C@H](Cc2ccccc2)NC(=O)[C@@H](Cc2ccc(OC)cc2)NC(=O)Cc2ccccc2)C(N)=O)C(=O)NCC(N)=O)NC(=O)[C@H](CC(N)=O)NC(=O)[C@H](CCC(N)=O)NC1=O` [Compound 24] (I: H-CFIQNCP[Orn]G-NH2 / II: PhAc-[dY](Me)F[3Pal]NRPR[isoGln][εLys]; disulfide I:1-I:6; amide I:8-II:C) the same measures were 2.3 nM and 33%.
Regarding `CC[C@H](C)[C@@H]1NC(=O)[C@H](Cc2ccccc2)NC(=O)[C@@H](N)CSSC[C@@H](C(=O)N2CCC[C@H]2C(=O)N[C@@H](CCNC(=O)[C@@H](N)CCCCNC(=O)CC[C@H](NC(=O)[C@H](CCCNC(=N)N)NC(=O)[C@@H]2CCCN2C(=O)[C@H](CCCCN)NC(=O)[C@H](CC(N)=O)NC(=O)[C@H](CCC(N)=O)NC(=O)[C@H](Cc2ccccc2)NC(=O)[C@@H](Cc2ccc(OC)cc2)NC(=O)Cc2ccccc2)C(N)=O)C(=O)NCC(N)=O)NC(=O)[C@H](CC(N)=O)NC(=O)[C@H](CCC(N)=O)NC1=O` [Compound 35] (I: H-CFIQNCP[Dab]G-NH2 / II: PhAc-[dY](Me)FQNKPR[isoGln][εLys]; disulfide I:1-I:6; amide I:8-II:C), the EC50 is 1.2 nM and the Emax amounted to 43%.
For `CC[C@H](C)[C@@H]1NC(=O)[C@H](Cc2ccccc2)NC(=O)[C@@H](N)CSSC[C@@H](C(=O)N2CCC[C@H]2C(=O)N[C@@H](CCCNCCCCCNC(=O)CC[C@H](NC(=O)[C@H](CCCNC(=N)N)NC(=O)[C@@H]2CCCN2C(=O)[C@H](CCN)NC(=O)[C@H](CC(N)=O)NC(=O)[C@H](CCC(N)=O)NC(=O)[C@H](Cc2ccccc2)NC(=O)[C@@H](Cc2ccc(OC)cc2)NC(=O)Cc2ccccc2)C(N)=O)C(=O)NCC(N)=O)NC(=O)[C@H](CC(N)=O)NC(=O)[C@H](CCC(N)=O)NC1=O` [Compound 16] the same measures were 2.4 nM and 46%.
In the case of `CC[C@H](C)[C@@H]1NC(=O)[C@H](Cc2ccccc2)NC(=O)[C@@H](N)CSSC[C@@H](C(=O)N2CCC[C@H]2C(=O)N[C@@H](CCCNCCCCNC(=O)CCCC(=O)NCCCC[C@H](NC(=O)[C@H](CCCNC(=N)N)NC(=O)[C@@H]2CCCN2C(=O)[C@H](CCCNC(=N)N)NC(=O)[C@H](CC(N)=O)NC(=O)[C@H](CCC(N)=O)NC(=O)[C@H](Cc2ccccc2)NC(=O)[C@@H](Cc2ccc(OC)cc2)NC(=O)Cc2ccccc2)C(N)=O)C(=O)NCC(N)=O)NC(=O)[C@H](CC(N)=O)NC(=O)[C@H](CCC(N)=O)NC1=O` [Compound 3] (I: H-CFIQNCP[X3]G-NH2 / II: PhAc-[dY](Me)FQNRPRK-NH2; disulfide I:1-I:6; linker I:8-II:8 via Glutaryl), the EC50 stood at 2.9 nM and the Emax is 39%.
